Reference: EP0539086B1, “Condensed pyrimidine derivatives and their use as angiotensine II antagonists” (AMERICAN HOME PRODUCTS CORPORATION, priority 1991, dated 1993)

Tested on: A II-infused rat
Assay: A II-infused rat model (antihypertensive action)
Format: in vivo
Conditions: 3 mg/kg id, average, four hours post-administration, anesthetized ganglion-blocked rats with A II infusion
Procedure: In accordance with their ability to antagonize angiotensin II, the compounds of this invention show antihypertensive action in the following A II-infused rat model. Procedure: Rats are anesthetized with Dial-Urethane (0.60 mL/kg, ip) and the trachea cannulated with PR 240. Either one femoral artery and both femoral veins or the carotid artery and the corresponding jugular vein are cannulated with PE 50. If the jugular vein is cannulated, two cannulas are placed in the one vein. The initial portion of the duodenum (just distal to the stomach) is cannulated with PE 50 via a small midline incision. Arterial pressure and heart rate are measured from the arterial cannula. Ten to 15 min are allowed following surgery for stabilization of arterial pressure. Ganglion blockade is then produced by intravenous administration of mecamylamine at 3 mg/kg (1 mL/kg of a 3 mg/mL solution). Ganglion blockade causes a fall in arterial pressure of about 50 mmHg. Mecamylamine is given every 90 min throughout the remainder of the experiment. An A II infusion is then begun into the other venous cannula at 0.25 µg/kg min (at 9.6 µL/min). The A II infusion returns arterial pressure to or slightly above the control level. Once arterial pressure has stabilized with the A II infusion, baseline values for mean arterial pressure (MAP) and heart rate are taken. […]

With `Cc1nc(C)c2c(n1)N(Cc1ccc(-c3ccccc3-c3nnn[nH]3)cc1)C(=O)C2` [Example 1, 2,4-Dimethyl-5,7-dihydro-7-[[2'-(1H-tetrazol-5-yl)[1,1-bi-phenyl]-4-yl]methyl]-6H-pyrrolo[2,3-d]pyrimidin-6-one] the “lowered the A II dependent blood pressure” value was 41%.
